The record followed here is patent US10918645B2 (LIFEARC, priority 2016, dated 2021).

The structures appear in SMILES notation.

Holding throughout (assay type): biochemical
What all share (settings): 1 μM inhibitor concentration

The target in one assay is CAMK1 (Homo sapiens (Human), UniProt Q14012). In words: CAMK1 kinase selectivity assay. As for the experimental part: 5-20 mU of CAMK-1 (diluted in 50 mM Tris (pH 7.5), 0.1 mM EGTA, 1 mg/ml BSA, 0.1%, b-Mercaptoethanol) is assayed against substrate peptide ([…]) in a final volume of 25.5 μl containing 50 mM Tris (pH 7.5), 0.1 mM EGTA, 0.5 mM CaCl2, 0.3 μM calmodulin, 0.1%, b-Mercaptoethanol, 300 μM substrate peptide, 10 mM magnesium acetate and 0.05 mM [33P-g-ATP](500-1000 cpm/pmole) and incubated for 30 mins at room temperature. Assays are stopped by addition of […] of 0.5M (3%) orthophosphoric acid. Assays are harvested onto P81 Unifilter plates using a wash buffer of 50 mM orthophosphoric acid.

A further assay concerns the target IRR (Homo sapiens (Human), UniProt P14616). In words: IRR kinase selectivity assay. As for the experimental part: 5-20 mU of IRR (diluted in 50 mM Hepes (pH 7.5), 0.1 mM EGTA) is assayed against MBP in a final volume of 25.5 μl containing 50 mM Hepes (pH 7.5), 0.1 mM EGTA, 0.33 mg/ml MBP, 10 mM magnesium acetate and 0.005 mM [33P-g-ATP](500-1000 cpm/pmole) and incubated for 30 mins at room temperature. Assays are stopped by addition of 5 μl of 0.5M (3%) orthophosphoric acid. Assays are harvested onto P81 Unifilter plates using a wash buffer of 50 mM orthophosphoric acid.

The target in a further assay is MLK3 (Homo sapiens (Human), UniProt Q16584). In words: MLK3 kinase selectivity assay. The method, then: MLK3 (5-20 mU diluted in 50 mM Tris pH 7.5, 0.1 mM EGTA, 0.1% 0-mercaptoethanol, 1 mg/ml BSA) is assayed against MBP in a final volume of 25.5 μl containing 50 mM Tris pH 7.5, 0.1 mM EGTA, 0.33 mg/ml MBP, 10 mM magnesium acetate and 0.02 mM [33P-γ-ATP] (50-1000 cpm/pmole) and incubated for 30 min at room temperature. Assays are stopped by addition of 5 μl of 0.5 M (3%) orthophosphoric acid and then harvested onto P81 Unifilter plates with a wash buffer of 50 mM orthophosphoric acid.
Sequence of MLK3 (Q16584 whole entry, species assumed): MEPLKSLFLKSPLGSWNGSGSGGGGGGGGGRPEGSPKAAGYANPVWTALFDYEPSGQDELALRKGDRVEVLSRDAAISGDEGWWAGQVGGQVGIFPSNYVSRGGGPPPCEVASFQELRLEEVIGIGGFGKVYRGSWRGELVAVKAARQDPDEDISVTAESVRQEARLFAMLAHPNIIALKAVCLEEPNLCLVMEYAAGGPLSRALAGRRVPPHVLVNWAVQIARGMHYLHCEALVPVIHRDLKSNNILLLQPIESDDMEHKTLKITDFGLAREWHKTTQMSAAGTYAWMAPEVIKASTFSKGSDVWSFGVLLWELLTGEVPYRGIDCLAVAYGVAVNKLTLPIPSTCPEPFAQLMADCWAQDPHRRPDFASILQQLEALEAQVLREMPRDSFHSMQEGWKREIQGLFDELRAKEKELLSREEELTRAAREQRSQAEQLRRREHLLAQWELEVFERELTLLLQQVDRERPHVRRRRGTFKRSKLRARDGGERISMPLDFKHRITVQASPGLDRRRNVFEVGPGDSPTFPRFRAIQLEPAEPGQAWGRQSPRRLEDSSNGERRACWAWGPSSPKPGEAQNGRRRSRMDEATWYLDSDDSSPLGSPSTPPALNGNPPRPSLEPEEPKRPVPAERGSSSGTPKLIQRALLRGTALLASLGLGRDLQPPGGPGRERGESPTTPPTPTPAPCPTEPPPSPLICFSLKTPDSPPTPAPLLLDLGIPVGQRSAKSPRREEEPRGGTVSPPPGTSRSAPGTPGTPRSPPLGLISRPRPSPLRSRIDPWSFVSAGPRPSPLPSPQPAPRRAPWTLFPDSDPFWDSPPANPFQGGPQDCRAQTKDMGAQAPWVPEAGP

For a further assay, the target named is MLK1 (Homo sapiens (Human), UniProt P80192). In words: MLK1 kinase selectivity assay. The method, then: MLK1 (5-20 mU diluted in 50 mM Tris pH 7.5, 0.1 mM EGTA, 0.1% 0-mercaptoethanol, 1 mg/ml BSA) is assayed against MBP in a final volume of 25.5 μl containing 50 mM Tris pH 7.5, 0.1 mM EGTA, 0.33 mg/ml MBP, 10 mM magnesium acetate and 0.02 mM [33P-γ-ATP] (50-1000 cpm/pmole) and incubated for 30 min at room temperature. Assays are stopped by addition of 5 μl of 0.5 M (3%) orthophosphoric acid and then harvested onto P81 Unifilter plates with a wash buffer of 50 mM orthophosphoric acid.
Sequence of MLK1 (P80192 whole entry, species assumed): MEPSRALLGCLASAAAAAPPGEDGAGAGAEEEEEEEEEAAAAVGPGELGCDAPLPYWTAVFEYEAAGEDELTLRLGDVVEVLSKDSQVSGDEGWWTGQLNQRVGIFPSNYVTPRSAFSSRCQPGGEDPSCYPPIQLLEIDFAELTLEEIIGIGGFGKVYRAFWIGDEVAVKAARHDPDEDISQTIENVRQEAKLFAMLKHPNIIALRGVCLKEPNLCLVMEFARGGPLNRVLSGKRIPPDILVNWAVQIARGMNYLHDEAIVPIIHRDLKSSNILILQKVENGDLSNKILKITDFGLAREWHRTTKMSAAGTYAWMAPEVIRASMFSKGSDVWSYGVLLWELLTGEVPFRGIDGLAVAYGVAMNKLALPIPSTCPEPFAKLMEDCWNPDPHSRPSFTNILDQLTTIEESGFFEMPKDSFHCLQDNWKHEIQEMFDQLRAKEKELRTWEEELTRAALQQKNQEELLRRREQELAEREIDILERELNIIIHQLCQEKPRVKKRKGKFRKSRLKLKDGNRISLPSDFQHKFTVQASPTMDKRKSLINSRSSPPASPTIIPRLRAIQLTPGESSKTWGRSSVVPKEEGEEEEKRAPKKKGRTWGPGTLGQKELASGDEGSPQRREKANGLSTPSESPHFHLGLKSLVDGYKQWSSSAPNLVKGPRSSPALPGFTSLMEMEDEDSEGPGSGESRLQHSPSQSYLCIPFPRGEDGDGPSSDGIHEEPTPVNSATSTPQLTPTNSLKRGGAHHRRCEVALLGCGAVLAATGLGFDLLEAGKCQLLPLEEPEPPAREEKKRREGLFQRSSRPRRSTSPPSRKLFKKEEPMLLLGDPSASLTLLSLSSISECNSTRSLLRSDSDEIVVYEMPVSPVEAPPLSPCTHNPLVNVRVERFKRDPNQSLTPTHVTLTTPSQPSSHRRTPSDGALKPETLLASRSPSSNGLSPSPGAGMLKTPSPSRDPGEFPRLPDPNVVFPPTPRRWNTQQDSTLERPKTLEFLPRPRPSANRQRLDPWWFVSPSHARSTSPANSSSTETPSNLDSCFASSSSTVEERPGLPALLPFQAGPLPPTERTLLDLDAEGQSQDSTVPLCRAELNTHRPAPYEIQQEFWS

The target in another assay is GCK (Homo sapiens (Human), UniProt Q12851). In words: GCK kinase selectivity assay. The method, then: GCK (5-20 mU diluted in 50 mM Tris pH 7.5, 0.1 mM EGTA, 0.1% β-mercaptoethanol, 1 mg/ml BSA) is assayed against MBP in a final volume of 25.5 μl containing 50 mM Tris pH 7.5, 0.1 mM EGTA, 0.33 mg/ml MBP, 10 mM magnesium acetate and 0.02 mM [33P-γ-ATP] (50-1000 cpm/pmole) and incubated for 30 min at room temperature. Assays are stopped by addition of 5 μl of 0.5 M (3%) orthophosphoric acid and then harvested onto P81 Unifilter plates with a wash buffer of 50 mM orthophosphoric acid.
Sequence of GCK (Q12851 whole entry): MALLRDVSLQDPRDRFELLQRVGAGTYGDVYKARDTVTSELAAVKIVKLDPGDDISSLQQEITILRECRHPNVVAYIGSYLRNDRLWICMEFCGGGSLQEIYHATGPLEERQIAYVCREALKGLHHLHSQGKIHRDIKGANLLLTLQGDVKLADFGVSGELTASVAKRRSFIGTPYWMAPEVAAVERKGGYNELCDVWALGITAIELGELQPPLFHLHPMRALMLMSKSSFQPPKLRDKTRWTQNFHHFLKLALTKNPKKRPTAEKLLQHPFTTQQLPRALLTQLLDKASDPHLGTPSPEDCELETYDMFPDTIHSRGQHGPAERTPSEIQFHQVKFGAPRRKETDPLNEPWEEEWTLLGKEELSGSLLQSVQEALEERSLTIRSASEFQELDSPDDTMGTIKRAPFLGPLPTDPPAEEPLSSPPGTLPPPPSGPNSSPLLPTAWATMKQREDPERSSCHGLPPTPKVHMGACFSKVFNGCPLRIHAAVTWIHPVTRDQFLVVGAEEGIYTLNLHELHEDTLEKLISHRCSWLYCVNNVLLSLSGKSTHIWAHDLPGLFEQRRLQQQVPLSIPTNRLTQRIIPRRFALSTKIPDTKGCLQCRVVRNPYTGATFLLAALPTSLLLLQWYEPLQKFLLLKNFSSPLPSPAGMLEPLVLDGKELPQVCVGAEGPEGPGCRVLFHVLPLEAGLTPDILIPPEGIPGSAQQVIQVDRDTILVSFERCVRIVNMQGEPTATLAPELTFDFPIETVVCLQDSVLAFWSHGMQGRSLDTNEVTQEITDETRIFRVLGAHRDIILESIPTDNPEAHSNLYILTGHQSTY

A further assay has as its target IR (Homo sapiens (Human), UniProt P06213). The experiment in a line: IR kinase selectivity assay. As for the experimental part: IR-HIS (5-20 mU diluted in 50 mM Tris pH 7.5, 0.1 mM EGTA, 1 mg/ml BSA) is assayed against a substrate peptide ([…]) in a final volume of 25.5 μl containing 50 mM Tris pH 7.5, 300 µM substrate peptide, 10 mM magnesium acetate and 0.02 mM [33P-g-ATP] (50-1000 cpm/pmole) and incubated for 30 min at room temperature. Assays are stopped by addition of 5 μl of 0.5 M (3%) orthophosphoric acid and then harvested onto P81 Unifilter plates with a wash buffer of 50 mM orthophosphoric acid.

Another assay has as its target RIPK2 (Homo sapiens (Human), UniProt O43353). The experiment in a line: RIPK2 kinase selectivity assay. As for the experimental part:
RIPK2 (5-20 mU diluted in 50 mM Tris pH 7.5, 0.1 mM EGTA, 0.1% β-mercaptoethanol, 1 mg/ml BSA) is assayed against MBP in a final volume of […] containing 50 mM Tris pH 7.5, 0.1 mM EGTA, 0.33 mg/ml MBP, 10 mM magnesium acetate and 0.02 mM [33P-γ-ATP] (50-1000 cpm/pmole) and incubated for 30 min at room temperature. Assays are stopped by addition of 5 μl of 0.5 M (3%) orthophosphoric acid and then harvested onto P81 Unifilter plates with a wash buffer of 50 mM orthophosphoric acid.

Another assay has as its target SmMLCK (Homo sapiens (Human), UniProt Q15746). In words: SmMLCK kinase selectivity assay. The method, then:
5-20 mU of smMLCK (diluted in 50 mM Hepes (pH 7.5), 0.1 mM EGTA, 1 mg/ml BSA, 0.1%, b-Mercaptoethanol) is assayed against substrate peptide ([…]) in a final volume of 25.5 μl containing 50 mM Hepes (pH 7.5), 0.1 mM EGTA, 5 mM CaCl2, […] Calmodulin, 300 μM substrate peptide, 10 mM magnesium acetate and 0.05 mM [33P-g-ATP](500-1000 cpm/pmole) and incubated for 30 mins at room temperature. Assays are stopped by addition of 5 μl of 0.5M (3%) orthophosphoric acid. Assays are harvested onto P81 Unifilter plates using a wash buffer of 50 mM orthophosphoric acid.

For the next assay, the target named is JNK2 (Homo sapiens (Human), UniProt P45984). The experiment in a line: JNK2 kinase selectivity assay. As for the experimental part: JNK2 1(5-20 mU diluted in 50 mM Tris (pH 7.5), 0.1 mM EGTA, 1 mg/ml BSA, 0.1% b-mercaptoethanol) is assayed against ATF2 (activating transcription factor in a final volume of 25.5 μl in 50 mM Tris pH 7.5, 0.1 mM EGTA, 0.1% b-Mercaptoethanol, ATF2 (3 μM), 10 mM magnesium acetate and 0.02 mM [33P-g-ATP] (500-1000 cpm/pmole) and incubated for 30 min at room temperature. Assays are stopped by addition of 5 μl of 0.5 M (3%) orthophosphoric acid and then harvested onto P81 Unifilter plates with a wash buffer of 50 mM orthophosphoric acid.
Sequence of JNK2 (P45984 whole entry, species assumed): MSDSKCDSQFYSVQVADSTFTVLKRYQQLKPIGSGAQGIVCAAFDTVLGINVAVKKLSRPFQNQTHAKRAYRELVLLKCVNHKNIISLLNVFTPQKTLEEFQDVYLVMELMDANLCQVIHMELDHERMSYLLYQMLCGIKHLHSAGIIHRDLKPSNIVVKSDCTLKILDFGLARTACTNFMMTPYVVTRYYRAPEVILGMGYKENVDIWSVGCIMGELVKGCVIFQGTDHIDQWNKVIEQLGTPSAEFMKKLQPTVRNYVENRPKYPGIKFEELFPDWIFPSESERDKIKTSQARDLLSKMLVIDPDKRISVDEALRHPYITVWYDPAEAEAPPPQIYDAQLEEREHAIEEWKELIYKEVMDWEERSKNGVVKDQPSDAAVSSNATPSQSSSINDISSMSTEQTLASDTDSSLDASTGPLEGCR

Sequence of RIPK2 (O43353 whole entry, species assumed): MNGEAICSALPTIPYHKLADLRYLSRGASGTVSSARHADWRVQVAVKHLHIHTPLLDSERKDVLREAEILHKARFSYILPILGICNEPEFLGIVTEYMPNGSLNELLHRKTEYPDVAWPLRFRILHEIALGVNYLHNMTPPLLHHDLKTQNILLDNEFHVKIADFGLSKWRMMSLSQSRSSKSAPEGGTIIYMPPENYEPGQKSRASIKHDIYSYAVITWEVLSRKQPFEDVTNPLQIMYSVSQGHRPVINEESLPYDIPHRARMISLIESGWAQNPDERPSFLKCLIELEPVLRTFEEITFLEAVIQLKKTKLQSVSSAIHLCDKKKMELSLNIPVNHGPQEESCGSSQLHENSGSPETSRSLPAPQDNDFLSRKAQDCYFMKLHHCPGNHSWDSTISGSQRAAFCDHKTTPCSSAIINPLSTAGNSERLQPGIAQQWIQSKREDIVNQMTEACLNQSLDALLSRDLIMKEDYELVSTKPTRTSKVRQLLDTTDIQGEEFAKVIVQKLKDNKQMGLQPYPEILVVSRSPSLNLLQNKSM
Sequence of IRR (P14616 27-1297, species assumed): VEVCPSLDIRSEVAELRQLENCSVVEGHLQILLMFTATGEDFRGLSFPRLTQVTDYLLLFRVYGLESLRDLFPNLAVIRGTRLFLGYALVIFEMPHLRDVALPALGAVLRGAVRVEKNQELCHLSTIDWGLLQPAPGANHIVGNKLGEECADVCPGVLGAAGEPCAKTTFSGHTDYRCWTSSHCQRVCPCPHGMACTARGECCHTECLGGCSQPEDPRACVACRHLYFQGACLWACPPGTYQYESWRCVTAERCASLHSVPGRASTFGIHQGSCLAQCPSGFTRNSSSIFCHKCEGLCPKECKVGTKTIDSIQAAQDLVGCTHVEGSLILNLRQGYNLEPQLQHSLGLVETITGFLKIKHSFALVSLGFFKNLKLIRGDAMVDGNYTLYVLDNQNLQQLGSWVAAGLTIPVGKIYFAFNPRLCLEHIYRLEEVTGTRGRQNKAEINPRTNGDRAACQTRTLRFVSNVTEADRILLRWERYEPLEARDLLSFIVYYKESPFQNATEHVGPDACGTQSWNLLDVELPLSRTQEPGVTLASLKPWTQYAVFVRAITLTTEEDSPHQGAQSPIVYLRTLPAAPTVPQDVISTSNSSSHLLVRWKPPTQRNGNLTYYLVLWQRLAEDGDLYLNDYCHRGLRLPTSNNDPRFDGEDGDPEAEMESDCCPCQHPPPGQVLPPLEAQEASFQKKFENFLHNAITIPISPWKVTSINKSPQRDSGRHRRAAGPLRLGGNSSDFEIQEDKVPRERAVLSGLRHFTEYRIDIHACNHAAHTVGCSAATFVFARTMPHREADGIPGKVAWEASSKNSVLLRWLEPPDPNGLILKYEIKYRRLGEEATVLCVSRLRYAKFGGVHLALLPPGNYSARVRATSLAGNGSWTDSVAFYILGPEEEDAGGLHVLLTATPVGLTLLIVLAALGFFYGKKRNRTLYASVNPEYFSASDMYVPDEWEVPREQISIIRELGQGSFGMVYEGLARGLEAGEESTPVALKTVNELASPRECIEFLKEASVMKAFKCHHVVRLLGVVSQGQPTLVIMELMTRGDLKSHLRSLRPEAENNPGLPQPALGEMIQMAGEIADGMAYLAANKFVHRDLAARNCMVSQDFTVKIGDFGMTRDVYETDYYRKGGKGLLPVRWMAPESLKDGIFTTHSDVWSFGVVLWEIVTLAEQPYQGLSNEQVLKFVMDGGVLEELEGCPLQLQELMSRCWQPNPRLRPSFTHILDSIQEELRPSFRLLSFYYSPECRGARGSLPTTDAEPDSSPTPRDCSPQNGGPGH

Consider `c1cc2[nH]nc3c2c(n1)N(C1CCC1)CCC3` [Example 22, 6-cyclobutyl-6,7,8,9-tetrahydro-2H-1,2,5,6-tetraazabenzo[cd]azulene], for which the “percentage inhibition of CAMK1” value on CAMK1 was 0 percentage. The “percentage inhibition of IRR” value at IRR is listed as 8 percentage. Further, the “percentage inhibition of MLK3” value on MLK3 is listed as 7 percentage. For the same compound, on MLK1, the “percentage inhibition of MLK1” value came to 0 percentage. Besides, the “percentage inhibition of GCK” value on GCK worked out at 56 percentage. Besides, the “percentage inhibition of IR” value at IR came out at 27 percentage. In addition, the “percentage inhibition of RIPK2” value at RIPK2 was determined as 0 percentage. Further, the “percentage inhibition of SmMLCK” value on SmMLCK was found to be 16 percentage. Also, on JNK2, the “percentage inhibition of JNK2” value worked out at 1 percentage.
On to `c1cc2[nH]nc3c2c(n1)N(C1CCCC1)CCC3` [Example 23, 6-cyclopentyl-6,7,8,9-tetrahydro-2H-1,2,5,6-tetraazabenzo[cd]azulene], for which the “percentage inhibition of CAMK1” value on CAMK1 was found to be 0 percentage. Besides, the “percentage inhibition of IRR” value at IRR was found to be 4 percentage. For the same compound, the “percentage inhibition of MLK3” value at MLK3 amounted to 4 percentage. The “percentage inhibition of MLK1” value at MLK1 is listed as 0 percentage. The “percentage inhibition of GCK” value at GCK turned out to be 41 percentage. On IR, the “percentage inhibition of IR” value was 1 percentage. In addition, the “percentage inhibition of RIPK2” value at RIPK2 was determined as 0 percentage. Besides, the “percentage inhibition of SmMLCK” value at SmMLCK is on record as 15 percentage. At JNK2, the “percentage inhibition of JNK2” value amounted to 0 percentage.
Consider `c1cc2[nH]nc3c2c(n1)N(C1CCOCC1)CCC3` [Example 29, 6-(tetrahydro-2H-pyran-4-yl)-6,7,8,9-tetrahydro-2H-1,2,5,6-tetraazabenzo[cd]azulene], for which, at CAMK1, the “percentage inhibition of CAMK1” value stood at 0 percentage. Further, the “percentage inhibition of IRR” value on IRR is 6 percentage. The “percentage inhibition of MLK3” value at MLK3 came out at 8 percentage. Besides, the “percentage inhibition of MLK1” value on MLK1 is given as 0 percentage. The “percentage inhibition of GCK” value on GCK is listed as 67 percentage. The “percentage inhibition of IR” value on IR was 2 percentage. In addition, the “percentage inhibition of RIPK2” value on RIPK2 was determined as 0 percentage. In addition, the “percentage inhibition of SmMLCK” value at SmMLCK was 11 percentage. Also, the “percentage inhibition of JNK2” value at JNK2 was found to be 0 percentage.
With `CN1CCC(N2Cc3ccccc3-c3n[nH]c4ccnc2c34)CC1` [Example 55], the “percentage inhibition of CAMK1” value at CAMK1 is recorded as 25 percentage. In addition, on IRR, the “percentage inhibition of IRR” value is 18 percentage. At MLK3, the “percentage inhibition of MLK3” value is reported as 6 percentage. The “percentage inhibition of MLK1” value at MLK1 came to 24 percentage. Moreover, the “percentage inhibition of GCK” value on GCK was 71 percentage. At IR, the “percentage inhibition of IR” value was 5 percentage. For the same compound, on RIPK2, the “percentage inhibition of RIPK2” value is given as 7 percentage. Also, the “percentage inhibition of SmMLCK” value on SmMLCK amounted to 16 percentage. Besides, the “percentage inhibition of JNK2” value on JNK2 turned out to be 41 percentage.
On to `CC(C)n1ncc2c1CN(C1CCN(C)CC1)c1nccc3[nH]nc-2c13` [Example 68], for which the “percentage inhibition of CAMK1” value at CAMK1 stood at 45 percentage. The “percentage inhibition of IRR” value on IRR worked out at 1 percentage. Further, on MLK3, the “percentage inhibition of MLK3” value is 4 percentage. Further, at MLK1, the “percentage inhibition of MLK1” value is on record as 12 percentage. Also, the “percentage inhibition of GCK” value at GCK is reported as 27 percentage. Further, the “percentage inhibition of IR” value on IR came out at 0 percentage. Besides, at RIPK2, the “percentage inhibition of RIPK2” value stood at 0 percentage. For the same compound, the “percentage inhibition of SmMLCK” value on SmMLCK came to 9 percentage. Besides, at JNK2, the “percentage inhibition of JNK2” value is on record as 37 percentage.
